One data set concerns the target T1, human M1 mAChR (Homo sapiens, UniProt P11229).
T1 construct: expressed in transfected cells
T1 sequence (P11229 1-460): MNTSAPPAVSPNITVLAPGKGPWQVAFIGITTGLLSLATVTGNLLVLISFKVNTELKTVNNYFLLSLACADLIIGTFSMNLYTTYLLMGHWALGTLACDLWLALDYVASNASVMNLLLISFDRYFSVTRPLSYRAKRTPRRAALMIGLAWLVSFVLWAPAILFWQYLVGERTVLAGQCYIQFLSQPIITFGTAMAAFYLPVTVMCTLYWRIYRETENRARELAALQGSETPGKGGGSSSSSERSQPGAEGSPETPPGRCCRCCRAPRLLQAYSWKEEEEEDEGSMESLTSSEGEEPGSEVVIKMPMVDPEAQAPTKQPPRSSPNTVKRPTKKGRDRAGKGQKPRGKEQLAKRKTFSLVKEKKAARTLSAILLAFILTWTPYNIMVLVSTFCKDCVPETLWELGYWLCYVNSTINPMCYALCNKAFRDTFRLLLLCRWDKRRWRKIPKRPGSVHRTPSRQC
Description: Whole-cell functional agonist activity, FLIPR Ca2+ release, U2OS-based human M1 mAChR stable cell line. An excerpt:
(§1) Whole-cell functional agonist activity in cells expressing recombinant human muscarinic receptor subtypes.
(§2) ThermoFisher's FLIPR™ (Fluorescence Imaging Plate Reader) was used to quantify Ca^2+ release, a functional effect associated with Gaq-coupled M1 and M5 mAChRs. CisBio's phospho-ERK (pERK) Thr202/Tyr204 was used to evaluate Gai/o-coupled M2 and M4 mAChRs responses.
(§3) One day before the assay, M1, M3, and M5 cells were thawed out and plated at 10,000 cells/well into black-walled, clear-bottom, Poly-D-lysine coated 384-well microplates and incubated at 37° C. and 5% CO2 in MEME+10% FBS+1× penicillin/streptomycin/glutamine, for the M1 and M3 cell lines and F-12+10% FBS+1× penicillin/streptomycin/glutamine for the M5 cell line. […] The M1 and M5 responses were analyzed using the CBIS data analysis suite (ChemInnovation, CA).
(§4) Percentage activity was calculated using the following formula: % Activity=100%×(mean RFU of test sample mean RFU of vehicle control)/(mean MAX RFU control ligand mean RFU of vehicle control) where RFU is relative fluorescence unit. The M2 and the M4 cells were thawed out one day before the assay and plated at 2,000 and 1,000 cells per well, respectively, in […] of DMEM/F12+10% FBS in ProxiPlate 384-well white-walled, white-bottom tissue culture-treated plates and incubated at 37° C. and 5% CO2 overnight. Before the assay, cells were serum-starved at 37° C. in 5% CO2 for 4 hours by replacing culture media with […] of F12 media with 8 mM HEPES. The pERK assay was run according to assay kit instructions with minor volume modifications outlined below.

The target of another data set is T2, human M5 mAChR (Homo sapiens, UniProt P08912).
T2 construct: expressed in transfected cells
T2 sequence (P08912 1-532): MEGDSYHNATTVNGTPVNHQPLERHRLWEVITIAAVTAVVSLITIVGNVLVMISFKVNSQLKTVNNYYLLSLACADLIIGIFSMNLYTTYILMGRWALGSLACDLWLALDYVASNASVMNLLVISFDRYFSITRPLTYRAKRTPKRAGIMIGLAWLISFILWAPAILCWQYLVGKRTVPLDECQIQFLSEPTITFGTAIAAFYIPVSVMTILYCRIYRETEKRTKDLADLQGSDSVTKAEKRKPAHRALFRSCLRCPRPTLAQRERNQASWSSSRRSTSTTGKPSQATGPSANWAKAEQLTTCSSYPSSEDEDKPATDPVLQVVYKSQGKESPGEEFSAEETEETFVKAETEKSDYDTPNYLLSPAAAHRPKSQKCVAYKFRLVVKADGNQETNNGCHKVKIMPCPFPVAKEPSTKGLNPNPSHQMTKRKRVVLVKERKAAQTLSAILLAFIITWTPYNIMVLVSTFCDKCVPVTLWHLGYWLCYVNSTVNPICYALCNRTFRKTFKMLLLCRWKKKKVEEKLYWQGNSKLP
As to the kind of experiment: Whole-cell functional agonist activity, FLIPR Ca2+ release, CHOK1-based human M5 mAChR stable cell line.
Description: as §1, §2, §3, §4

The target in the next data set is T3, human M3 mAChR (Homo sapiens, UniProt P20309).
T3 construct: expressed in transfected cells
T3 sequence (P20309 whole entry): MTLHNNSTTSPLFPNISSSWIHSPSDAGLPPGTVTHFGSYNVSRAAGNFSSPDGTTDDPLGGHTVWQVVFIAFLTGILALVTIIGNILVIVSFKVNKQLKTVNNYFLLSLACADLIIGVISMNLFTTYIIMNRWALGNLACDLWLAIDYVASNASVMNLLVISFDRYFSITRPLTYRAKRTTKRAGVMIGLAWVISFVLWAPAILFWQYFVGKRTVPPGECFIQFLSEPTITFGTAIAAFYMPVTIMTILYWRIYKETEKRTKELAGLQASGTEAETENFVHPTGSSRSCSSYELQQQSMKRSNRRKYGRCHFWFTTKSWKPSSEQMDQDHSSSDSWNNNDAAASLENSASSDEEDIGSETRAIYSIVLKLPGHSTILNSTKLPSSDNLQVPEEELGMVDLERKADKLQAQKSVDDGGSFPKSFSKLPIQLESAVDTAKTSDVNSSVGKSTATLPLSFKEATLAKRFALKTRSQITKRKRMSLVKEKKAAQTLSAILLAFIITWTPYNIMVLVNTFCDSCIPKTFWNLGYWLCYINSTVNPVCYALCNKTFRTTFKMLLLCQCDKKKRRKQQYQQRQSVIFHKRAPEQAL
Description: Whole-cell functional agonist activity, FLIPR Ca2+ release, U2OS-based human M3 mAChR stable cell line.
Description: as §1, §2
One day before the assay, M1, M3, and M5 cells were thawed out and plated at 10,000 cells/well into black-walled, clear-bottom, Poly-D-lysine coated 384-well microplates and incubated at 37° C. and 5% CO2 in MEME+10% FBS+1× penicillin/streptomycin/glutamine, for the M1 and M3 cell lines and F-12+10% FBS+1× penicillin/streptomycin/glutamine for the M5 cell line. On the day of the test, the media was aspirated and replaced with […] fluo-4 dye loading buffer (1× dye, 1× additive A and 2.5 mM fresh probenecid in HBSS and 20 mM HEPES) and incubated at 37° C. and 5% CO2 for 45 minutes. After the incubation, cells were removed from the incubator, […] of HBSS and 20 mM HEPES was added for a total volume of […], and the cells were allowed to equilibrate at room temperature for 15 minutes in the dark before compounds were applied, by adding 4× compound solution in […] of HBSS, 0.4% DMSO and 20 mM HEPES buffer (made from a 10 mM compound stock solution in 100% DMSO), and responses were recorded for 2 minutes in FLIPR Tetra after compound administration. The M1 and M5 responses were analyzed using the CBIS data analysis suite (ChemInnovation, CA).
as §4

The nature of data set [1]: Human liver microsome stability. As to conditions: human liver microsomes. In kind it is in vitro ADME. The procedure: Human Liver Microsome Stability
Test compounds were dissolved in DMSO to prepare 10 mM stock solutions, diluted to a final test concentration of 100 nM, and incubated at 37° C. with human liver microsomes. Metabolic stability, expressed as a percent of the parent compound remaining, was assessed at 0, 15, 30, 45, and 60 minutes and calculated by comparing the compound's peak area at the time point relative to that at time-0. The half-life (T1/2) was estimated from the slope of the initial linear range of the logarithmic curve of compound remaining (%) vs. time, assuming first-order kinetics. The apparent intrinsic clearance (CLint, in μL/min/pmol, μL/min/mg or μL/min/Mcell) was calculated according to the following formula: CLint=0.693 T1/2*(mg protein/μL or million cells/μL or pmol CYP isoyme/μL).

A short description of data set [2]: Storage stability of the tartrate salt (reanalysis by LC-MS, 1H NMR, 19F NMR). In kind it is physicochemical. The procedure:
The tartrate salt of the title compound was unstable at test storage conditions. Although the initial NMR spectra were clean, the LCMS purity was about 75%. After storage at 0° C. for six months, the sample was reanalyzed by ^1H-NMR, ^19F-NMR, and LC-MS.

In data set [3] the test system is muscarinic acetylcholine receptor (mAChRs) human M1-M5 (hM1-hM5). As to conditions: pERK, CHO cells. An excerpt: In-Vitro Radioligand Binding Assays
The Flp-In™ cell lines are designed to generate stable cell lines that express a protein of interest from an Flp-In™ expression vector.
An extracellular signal-related kinase (ERK1/2 or p42/44) is a kinase in the mitogen-activated protein kinase (MAPK) family. Phosphorylation of ERK (pERK) can be used as a common endpoint measurement for the activation of many classes of G protein-coupled receptors (GPCR) and beta-arrestin linked signaling.
For the pERK assay, cells were serum-starved for 5 to 6 hours. Curves were normalized to the maximum response from the fetal bovine serum (FBS) medium corresponding to a 5-minute stimulation. A 5-minute incubation with the agonists was selected for the dose-response pERK assays (n=2).
Nonlinear regression curves were calculated per the three parameters method with no constraints.

Setting [4] is: top of curve, % activity vs MAX control ligand, FLIPR Ca2+.

The text below walks through data of patent publication US11534434B2 (Karuna Therapeutics, Inc., priority 2019, dated 2022).

In general, EC50 refers to the concentration needed to bring the measured effect to its halfway point. Higher therefore signals a need for much substance. As usually defined, the Emax is the maximal effect, on the per cent scale that the assay sets. Broadly, the microsomal CLint is a measure of how fast metabolising enzymes remove a compound, apart from limits set by blood flow. As a reminder, the half-life is the time in which the quantity being followed falls by half. In the case of `CCCC(F)(F)CCOc1nsnc1C1=CCCN(C)C1` [Example 10, 3-((3,3-Difluorohexyl)oxy)-4-(1-methyl-1,2,5,6-tetrahydropyridin-3-yl)-1,2,5-thiadiazole], the EC50 at human M1 mAChR (agonist, FLIPR Ca2+ release, U2OS human M1 cells) was 4.2 nM; at human M5 mAChR (agonist, FLIPR Ca2+ release, CHOK1 human M5 cells), 26.5 nM; on human M3 mAChR (agonist, FLIPR Ca2+ release, U2OS human M3 cells), more than 10000 nM. In addition, the maximal effect (Emax) came to 90% at human M1 mAChR (setting [4]), 87% at human M5 mAChR (setting [4]) and 9% at human M3 mAChR (setting [4]). The microsomal CLint at 100 nM in data set [1] (apparent intrinsic clearance, no unit in table (μL/min/pmol, μL/min/mg or μL/min/Mcell)) amounted to 701 µL/min/mg. Further, in data set [1] (100 nM, 37° C., tartrate salt), the “Parent at 60 min (%)” value is on record as 1%. For the same compound, the half-life at 100 nM in data set [1] (100 nM, 37° C., tartrate salt) amounted to 10 min.
Consider `CCCCCCOc1nsnc1C1=CCCN(C(F)(F)F)C1` [Example 3, 3-(Hexyloxy)-4-(1-(trifluoromethyl)-1,2,5,6-tetrahydropyridin-3-yl)-1,2,5-thiadiazole], for which the “stability of tartrate salt preparation by LCMS” value in data set [2] (after 2 days) is reported as “turned messy”.
In the case of `[2H]C([2H])([2H])C([2H])([2H])C([2H])([2H])C([2H])([2H])C([2H])([2H])C([2H])([2H])Oc1nsnc1C1=CCCN(C)C1` [Xanomeline-d13, 3-((Hexyl-1,1,2,2,3,3,4,4,5,5,6,6,6-d13)oxy)-4-(1-methyl-1,2,5,6-tetrahydropyridin-3-yl)-1,2,5-thiadiazole], in data set [3], the “agonist profile at hM3, hM5, hM2” value is recorded as “modestly potent partial agonists at mAChRs hM3>hM5>hM2” and the “agonist profile at hM4, hM1” value is listed as “efficacious partial agonist at hM4>hM1”.
As to `FC(F)(F)CCCCCOc1nsnc1C1=CCCN(C(F)(F)F)C1` [Example 2, 3-((6,6,6-Trifluorohexyl)oxy)-4-(1-(trifluoromethyl)-1,2,5,6-tetrahydropyridin-3-yl)-1,2,5-thiadiazole], in data set [2] (six months of storage at 0° C., LC-MS, 1H NMR, 19F NMR), the “storage stability of tartrate salt” value was “none of the title compound remained in the sample”.
For `[2H]C([2H])([2H])N1CCC=C(c2nsnc2OC([2H])([2H])C([2H])([2H])C([2H])([2H])C([2H])([2H])C([2H])([2H])C([2H])([2H])[2H])C1` [Xanomeline-d16, 3-((hexyl-1,1,2,2,3,3,4,4,5,5,6,6,6-d13)oxy)-4-(1-(methyl-d3)-1,2,5,6-tetrahydropyridin-3-yl)-1,2,5-thiadiazole], in data set [3], the “agonist profile at hM3, hM5, hM2” value is listed as “modestly potent partial agonists at mAChRs hM3>hM5>hM2” and the “agonist profile at hM4, hM1” value was “efficacious partial agonist at hM4>hM1”.
